Experimental data as given in ChEMBL document CHEMBL1201862, “PubChem BioAssay data set” (2004).
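Following 48 hours of exposure in 96-well plates, responses at five concentrations were used to interpolate endpoints linearly. At the GI50, growth is halved.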 The source made the active and inactive calls. No stated cut-off is given here; in the data, active = GI50 up to about 1.1 µM and inactive = higher.

Tests used:
Experiment in all cases: growth of human tumour cells (NCI), 48 h
A549 = test system: A549
COLO 205 = test system: COLO 205
DU-145 = test system: DU-145
HCT-116 = test system: HCT-116
HL-60 = test system: HL-60
HOP-62 = test system: HOP-62
HOP-92 = test system: HOP-92
IGROV-1 = test system: IGROV-1
M14 = test system: M14
MOLT-4 = test system: MOLT-4
OVCAR-5 = test system: OVCAR-5
OVCAR-8 = test system: OVCAR-8
RPMI-8226 = test system: RPMI-8226
SF-268 = test system: SF-268
SK-MEL-28 = test system: SK-MEL-28
SK-MEL-5 = test system: SK-MEL-5
T47D = test system: T47D
TK-10 = test system: TK-10
UACC-257 = test system: UACC-257
UACC-62 = test system: UACC-62

SMILES | GI50 (A549) | GI50 (COLO 205) | GI50 (DU-145) | GI50 (HCT-116) | GI50 (HL-60) | GI50 (HOP-62) | GI50 (HOP-92) | GI50 (IGROV-1) | GI50 (M14) | GI50 (MOLT-4) | GI50 (OVCAR-5) | GI50 (OVCAR-8) | GI50 (RPMI-8226) | GI50 (SF-268) | GI50 (SK-MEL-28) | GI50 (SK-MEL-5) | GI50 (T47D) | GI50 (TK-10) | GI50 (UACC-257) | GI50 (UACC-62)
COc1ccccc1N1C(=O)/C(=C\c2cccc(Oc3ccccc3)c2)SC1c1ccccc1 (stereo not given) | 34.3 µM (inactive) | 15.3 µM (inactive) | 57.5 µM (inactive) | 16.5 µM (inactive) | < 0.01 µM (active) | 73.3 µM (inactive) | 21.1 µM (inactive) | 21.1 µM (inactive) | 24.4 µM (inactive) | 31 µM (inactive) | > 100 µM (inactive) | 31.3 µM (inactive) | 24.6 µM (inactive) | 38 µM (inactive) | 46.9 µM (inactive) | 14.4 µM (inactive) | 27.2 µM (inactive) | > 100 µM (inactive) | 31.3 µM (inactive) | 5.75 µM (inactive)
Nc1ccc(Oc2ccc(C3(c4ccc(Oc5ccc(N)c(O)c5)cc4)C4CC5CC(C4)CC3C5)cc2)cc1O | 1.81 µM (inactive) | 0.484 µM (active) | 1.82 µM (inactive) | 1.5 µM (inactive) | 2.11 µM (inactive) | 2.5 µM (inactive) | 2.92 µM (inactive) | 1.75 µM (inactive) | 1.71 µM (inactive) | 1.66 µM (inactive) | 2.35 µM (inactive) | 1.7 µM (inactive) | 1.97 µM (inactive) | 1.53 µM (inactive) | 1.84 µM (inactive) | 1.58 µM (inactive) | 3.27 µM (inactive) | 2.12 µM (inactive) | 2.12 µM (inactive) | 2.69 µM (inactive)
Clc1cc(Cl)cc(/C=N/C23CC4CC(CC(C4)C2)C3)c1 | > 10 µM (inactive) | > 10 µM (inactive) | > 10 µM (inactive) | > 10 µM (inactive) | > 10 µM (inactive) | > 10 µM (inactive) | > 10 µM (inactive) | > 10 µM (inactive) | > 10 µM (inactive) | > 10 µM (inactive) | > 10 µM (inactive) | > 10 µM (inactive) | > 10 µM (inactive) | > 10 µM (inactive) | > 10 µM (inactive) | > 10 µM (inactive) | > 10 µM (inactive) | > 10 µM (inactive) | > 10 µM (inactive) | > 10 µM (inactive)
CC(C(=O)n1ccnc1)N1c2ccccc2Sc2ccccc21 (stereo not given) | > 100 µM (inactive) | 79.3 µM (inactive) | > 100 µM (inactive) | > 100 µM (inactive) | 91.8 µM (inactive) | 67.5 µM (inactive) | 25.1 µM (inactive) | > 100 µM (inactive) | 77.3 µM (inactive) | 43 µM (inactive) | 65.3 µM (inactive) | > 100 µM (inactive) | 65.3 µM (inactive) | 98.2 µM (inactive) | > 100 µM (inactive) | 35 µM (inactive) | 39.5 µM (inactive) | > 100 µM (inactive) | 79.4 µM (inactive) | > 100 µM (inactive)
OC[C@@H](O)[C@H](O)[C@@H](O)/C=N/Nc1ccc(Cl)nn1 | > 100 µM (inactive) | > 100 µM (inactive) | > 100 µM (inactive) | > 100 µM (inactive) | > 100 µM (inactive) | > 100 µM (inactive) | > 100 µM (inactive) | > 100 µM (inactive) | > 100 µM (inactive) | > 100 µM (inactive) | > 100 µM (inactive) | > 100 µM (inactive) | > 100 µM (inactive) | > 100 µM (inactive) | > 100 µM (inactive) | > 100 µM (inactive) | > 100 µM (inactive) | > 100 µM (inactive) | > 100 µM (inactive) | > 100 µM (inactive)
CC(C)(C)OC(=O)C(C1NC(C(=O)O)C(C)(C)S1)N1C(=O)c2ccccc2C1=O (stereo not given) | > 100 µM (inactive) | > 100 µM (inactive) | > 100 µM (inactive) | > 100 µM (inactive) | > 100 µM (inactive) | > 100 µM (inactive) | > 100 µM (inactive) | > 100 µM (inactive) | > 100 µM (inactive) | > 100 µM (inactive) | > 100 µM (inactive) | > 100 µM (inactive) | > 100 µM (inactive) | > 100 µM (inactive) | > 100 µM (inactive) | > 100 µM (inactive) | > 100 µM (inactive) | > 100 µM (inactive) | > 100 µM (inactive) | > 100 µM (inactive)
